{
  "source": "patent US20240100053A1",
  "about": "“PHARMACEUTICAL COMPOSITION” (priority 2021, published 2024)",
  "key": {"[1]": {"test_system": "ERK, AKT, and STAT3 downstream of FGF19/FGFR4 signaling", "assay": "Immunoblotting of ERK, AKT, STAT3 in PK-1 cells", "format": "cell-based", "conditions": "2 μM, FIG. 4"}, "[2]": {"test_system": "ERK, AKT, and STAT3 downstream of FGF19/FGFR4 signaling", "assay": "Immunoblotting of ERK, AKT, STAT3 in PK-45P cells", "format": "cell-based", "conditions": "FIG. 4"}, "FGFR1-3": {"test_system": "FGFR1-3", "conditions": "general statement in the description, no test shown; cited from earlier work"}, "[3]": {"test_system": "PK-1 cells and PK-45P cells", "assay": "Cytotoxicity by FACS using annexin V and PI", "format": "cell-based", "conditions": "2 μM, FIG. 3B"}, "PK-45P cells": {"test_system": "PK-45P cells", "assay": "Cell proliferation by ATP assay, FGFR4-low PK-45P cells", "format": "cell-based", "conditions": "PK-45P cells (low FGFR4); 250 nM to 2 μM; 72 hours; FIG. 3A", "method": "(§1) After 72 hours of incubation, the effect on cell proliferation was examined by ATP assay."}, "PK-1 cells [4]": {"test_system": "PK-1 cells", "assay": "Cell invasion, Corning Matrigel Invasion Chamber", "format": "cell-based", "conditions": "2 μM, 16 hours, FIG. 5", "method": "1×10^5 cells/500 μL of PK-1 cells were seeded on top of the insert."}, "phosphorylation of H2A.X": {"test_system": "phosphorylation of H2A.X", "assay": "DNA damage by phosphorylation of H2A.X (immunofluorescence)", "format": "cell-based", "conditions": "incubation time increased from 3 days to 7 days; FIG. 7", "method": "BLU9931-treated cells were incubated with anti-γHA2.X mouse monoclonal antibody at 4° C. overnight. Cells were treated with Alexa-Fluor-conjugated secondary antibodies and nuclear staining was performed with DAPI."}, "[5]": {"test_system": "PK-1 cells and PK-45P cells", "assay": "Cell cycle by FACS", "format": "cell-based", "conditions": "after addition of BLU9931, FIG. 3C"}, "PK-1 cells [6]": {"test_system": "PK-1 cells", "assay": "Cellular aging: morphology and SA-β-Gal staining", "format": "cell-based", "conditions": "2 μM", "method": "In this example, an aging of cells by BLU9931 was examined. […] This morphological change was considered to be due to cellular aging. The present inventors measured the activity of senescence-associated β-galactosidase (SA-β-Gal), a marker of cellular aging.\nAfter staining, nuclear staining was performed with DAPI."}, "PK-1 cells [7]": {"test_system": "PK-1 cells", "assay": "Cell proliferation by ATP assay, FGFR4-high PK-1 cells", "format": "cell-based", "conditions": "PK-1 cells (high FGFR4); 250 nM, 500 nM, 1 μM or 2 μM; 72 hours; volume-dependent manner; FIG. 3A", "method": "as §1"}},
  "data": [
    {"compound": "C=CC(=O)Nc1cccc(C)c1Nc1ncc2cc(-c3c(Cl)c(OC)cc(OC)c3Cl)ccc2n1", "note": "[BLU9931]", "values": [
      {"measurement": "expression of AKT", "setting": "[1]", "result": "decreased"},
      {"measurement": "expression of ERK", "setting": "[1]", "result": "decreased"},
      {"measurement": "expression of STAT3", "setting": "[1]", "result": "decreased"},
      {"measurement": "expression of AKT", "setting": "[2]", "result": "not decreased"},
      {"measurement": "expression of ERK", "setting": "[2]", "result": "not decreased"},
      {"measurement": "expression of STAT3", "setting": "[2]", "result": "not decreased"},
      {"measurement": "inhibition of FGFR1-3", "setting": "FGFR1-3", "result": "does not inhibit"},
      {"measurement": "apoptosis, necrosis, or cell damage observed in cells", "setting": "[3]", "result": "≤ 2", "unit": "%"},
      {"measurement": "cytotoxicity", "setting": "[3]", "result": "no significant effects"},
      {"measurement": "cell proliferation", "setting": "PK-45P cells", "result": "no effect"},
      {"measurement": "cell invasion", "setting": "PK-1 cells [4]", "result": "inhibited"},
      {"measurement": "DNA damage of the cells", "setting": "phosphorylation of H2A.X", "result": "progressed"},
      {"measurement": "number of cells in S phase", "setting": "[5]; 20.7% without", "result": 13.5, "unit": "%"},
      {"measurement": "number of cells in G0/G1 phase", "setting": "[5]; 60.7% without", "result": 70.1, "unit": "%"},
      {"measurement": "number of SA-β-Gal positive cells compared to the control cells", "setting": "PK-1 cells [6]; FIG. 6", "result": "increased"},
      {"measurement": "cell morphology compared to the control cells", "setting": "PK-1 cells [6]; PK-1 cells, 1 week, FIG. 6A", "result": "larger and flattened"},
      {"measurement": "cell proliferation", "setting": "PK-1 cells [7]", "result": "suppressed"}
    ]}
  ]
}
